Experimental data published in patent US9689841B2, “Fluorescent pI markers for isoelectric focusing separations and fluorescent labeling” (The Texas A&M University System, priority 2011, dated 2017).
Read-outs that look alike come from different tables or passages of the source.

Tests used:
[1] = cited from earlier work
[2] = from the two pKa values
Excerpt: An ampholytic compound dissolved in an aqueous buffer can be present in the solution either as a cationic, isoelectric or anionic species, depending on the pH of the solution. In the presence of a nonalternating electric field, the cationic or anionic species migrate electrophoretically toward the cathode or the anode, respectively. At a certain solution pH where the ampholyte becomes isoelectric, the net electrophoretic migration of its band becomes zero. The numeric value of this solution pH is equal to the pI value (isoelectric point) of the ampholyte. The pI value of an ampholyte is a material characteristic that is determined by the structure of the ampholyte (the types and pKa values of its weak and strong electrolyte functional groups). When the ampholyte contains a single acidic group (characterized by pKa^acid) and a single basic group (characterized by pKa^conjugate acid for this conjugate acid form), the pI value of the ampholyte can be calculated as pI=(pKa^acid+pKa^conjugate acid)/2. When an ampholyte contains two acidic groups (characterized by pKa^acid1 and pKa^acid2) and one basic group (characterized by pKa^conjugate acid for its conjugate acid form) with pKa^acid1<pKa^acid2<<pKa^conjugate acid, the pI of the ampholyte lies between pKa^acid1 and pKa^acid2 and is calculated as pI=(pKa^acid1 pKa^acid2)/2. In such cases, the acidic groups between which the pI lies are called the buffering groups, while the basic group is called the titrating group or charge balancing group. Similarly, when an ampholyte contains two basic groups (characterized by pKa^conjugate acid1 and pKa^conjugate acid2 for their conjugate acid forms) and one acidic group (characterized by pKa^acid) with pKa^acid<<pKa^conjugate acid1<pKa^conjugate acid2, the pI of the ampholyte lies between pKa^conjugate acid1 and pKa^conjugate acid2 and is calculated as pI=(pKa^conjugate acid1, pKa^conjugate acid2)/2. In such cases, the two basic groups between which the pI lies are called the buffering groups, while the acidic group is called the titrating group or charge balancing group. When the ampholyte contains multiple buffering groups and multiple titrating or charge balancing groups with relatively close pKa values, the charge contribution of each species needs to be evaluated in order to calculate the pI value.

[3] = physchem
[4] = first (lower) of the two pKa values
[5] = second (higher) of the two pKa values

| pI [2] | pKa [3] | SMILES | pKa [1, 4] | pKa [1, 5] |
| --- | --- | --- | --- | --- |
|  |  | O=C(O)c1ccccc1C(=O)O [1,2-benzenedicarboxylic acid] | 2.76 | 4.92 |
|  |  | O=C(O)c1ccc(C(=O)O)cc1 [1,4-benzenedicarboxylic acid] | 3.60 | 4.50 |
| 3.105 | 2.1 | O=C(O)c1ccccn1 [pyridine-2-carboxylic acid] |  |  |
| 3.34 | 1.54 | O=C(O)c1ccncc1 [pyridine-4-carboxylic acid] | 1.8 | 4.88 |

| SMILES | pI [2] | pKa [3] | pKa [1, 4] | pKa [1, 5] |
| --- | --- | --- | --- | --- |
| O=C(O)c1cccnc1 [pyridine-3-carboxylic acid] | 3.365 | 1.3 |  |  |
